Test results taken from patent publication US20130136714A1, “FUNCTIONALIZED POLYMER NANOPARTICLES AND THE PHARMACEUTICAL USE THEREOF” (KAOHSIUNG MEDICAL UNIVERSITY, priority 2011, published 2013).
Converted amounts (≈) assume the structure as drawn.

Columns and labels:
[1] = target: folic acid receptors (FAR); settings: read-out: dissociation constant (kd); cited from earlier work
KB cells = assay: cytotoxic test (IC50) for the EPI-loaded micelles (MTT); format: cell-based; settings: Homo sapiens
Description: The results of the cytotoxic test for the drug-loaded micelle are presented as the half maximal inhibitory concentration, i.e. IC50, which is used to examine the biological or biochemical inhibitory effect of a compound. Thus, the IC50 represents the concentration of the drug-loaded micelle required to inhibit the growth of a half of the cancer cells.
5×10^3 cells/well KB cells are incubated in 100 μL of RPMI 1640 medium, and transferred into the 96-well plate for incubating 24 hrs.
Epirubicin.HCl and drug-loaded micelle is prepared at 20 μg/mL, in RPMI 1640 medium. After a serial of dilution, 100 μL/well of each concentration (20, 10, 5, 2.5, 1.25, 1 and 0.5 μg/mL) is added into the cultured plate for 24 hrs incubation.
After 24 hrs incubation, the medium containing the drug and the micelle is removed, and the plate is washed with 100 μL/well PBS buffer at pH=7.4 and further incubated in 100 μL/well fresh medium for 24 and 48 hrs.
The plate is added with 50 μL/well (2 mg/mL) MTT and placed in the incubator for 3 hrs. […] Then, the cell viability is calculated using the ELISA reader.

KB cell line = assay: intracellular delivery by confocal laser scanning microscope; format: cell-based, human; settings: 0.625 μg/mL, cells incubated for 1 h
Description: Human oral cancer cell line (KB cell line) is used to investigate the cell viability of the carrier and the drug-loaded micelle, and the expression of the drug-loaded micelle through the endocytosis is observed using a confocal laser scanning microscope (CLSM). The 4′,6-diamidino-2-phenylindole (DAPI) and the lysosomal probe (Lyso-Traker) are used for cell core staining and the lysosome staining, respectively. The drug at the concentration of 0.625 μg/mL is added according to the cell viability for the drug-loaded micelle. The KB cell line is cultured for 0.5, 1, 3, and 24 hrs, in which the blue parts are shown by the DAPI staining at the cell core; the red is the fluorescence of the EPI; the green is the fluorescence of the Lyso-Traker, and the purple is the overlap of EPI and DAPI and the yellow is the overlap of Lyso-Traker and EPI. The amounts of EPI entering the nuclei and the lysosomes (the purple and the yellow images) increase with the increase in the incubation time.
Intracellular delivery is observed using the confocal microscope. 18 mm cover slip is immersed in 0.1N HCl solution for one day and washed to remove the impurities on the slide. After being rinsed by the ddH2O, the slide is wiped and then immersed in 75% alcohol. […]

[2] = drug release of EPI micelles by dialysis in PBS buffer; format: physicochemical; settings: pH = 7.4, 6.4 and 5.6
Description: […] The outside PBS buffer is collected at different time points and then the fresh 30 mL PBS buffer is replaced. The drug concentration is measured and calculated based on a calibration curve generated in PBS buffer with the same pH value.

Nc1nc2ncc(CNc3ccc(C(=O)N[C@@H](CCC(=O)O)C(=O)O)cc3)nc2c(=O)[nH]1 [folic acid]
Kd [1]: 0.1 nM

COc1cccc2c1C(=O)c1c(O)c3c(c(O)c1C2=O)C[C@@](O)(C(=O)CO)C[C@@H]3O[C@H]1C[C@H](N)[C@@H](O)[C@H](C)O1 [EPI, Epirubicin]
IC50 (KB cells; incubating time 24 hr): 0.35 µg/mL (≈ 0.644 µM) | IC50 (KB cells; incubating time 48 hr): 0.2 µg/mL (≈ 0.368 µM) | intracellular location of EPI fluorescence (KB cell line): observed in the cell nuclei rather than in cytoplasm | drug release rate (in words) [2]: quickly released in a short time
